Laboratory results reported in US20200002275A1, “Dimethyl Farnesyl Amine Oxide And Its Use As Surfactant Or Wetting Agent” (Clariant International Ltd., priority 2017, published 2020).

Key:
Format in all cases: physicochemical
[1] = Determination of wetting ability by immersion (modified EN 1772:2000); details: 0.1 wt.-% aqueous solution, room temperature, raw cotton disc, mean of five measurements
Method: This measurement was modified based on the European Standard EN 1772:2000. A 500 mL 0.1 wt.-% aqueous solution of test surfactant was prepared. The test solution was kept at room temperature to stabilize for 1 h. A raw cotton disc (30 mm diameter, wfk Testgewebe GmbH), was clamped in a gripper and immersed in the solution. Stopwatch was started at the moment when the lower part of the disc touched the solution and stopped when the disc began to sink of its own accord. The arithmetic mean of five measurements was calculated and recorded as the wetting time.

[2] = Solubility in water (observation)
[3] = Dynamic surface tension measurements, maximum bubble pressure method; details: deionized water, 25° C.
Method: These measurements were conducted with the Krüss PocketDyne BP2100, which utilized the maximum bubble pressure method of surface tension analysis. Surface tension profiles of dimethyl farnesyl amine oxide and diethyl farnesyl amine oxide at the desired concentration were measured in deionized water at 25° C.
The results in table 2 are given in mN/m.

[4] = Measurement of foam creation and decay on a SITA foam tester; details: 0.01 g/L surfactant solution, 1200 rpm, room temperature, 5 minutes foam creation; listed as dimethyl farnesyl amine oxide
Method: This method monitors foam generation and decay at room temperature over time. A surfactant solution of 0.01 g/L was pumped into the SITA foam tester R2000. The speed of the stirring plate was set to 1200 rpm. Foam creation was recorded in a 10 second interval for 5 minutes and decay was recorded in a 30 second interval for 15 minutes at room temperature.

[5] = CMC (critical micelle concentration) and surface tension measurements, Du Noüy ring method; details: 25° C., Krüss Tensiometer K 100 (Ring)
Method: CMC (critical micelle concentration) and surface tension measurements These measurements were conducted with the Krüss Tensiometer K 100 (Ring), which utilized the Du Noüy ring method. Surface tension profiles of the amine oxides were measured at 25° C.

Wetting time [1] | Surface tension at surface age 20 ms ([3]; 0.3 g/L) | Surface tension at surface age 50 ms ([3]; 0.3 g/L) | Surface tension at surface age 100 ms ([3]; 0.3 g/L) | Surface tension at surface age 200 ms ([3]; 0.3 g/L) | Surface tension at surface age 400 ms ([3]; 0.3 g/L) | Surface tension at surface age 20 ms ([3]; 1.0 g/L) | Surface tension at surface age 50 ms ([3]; 1.0 g/L) | Surface tension at surface age 100 ms ([3]; 1.0 g/L) | Surface tension at surface age 200 ms ([3]; 1.0 g/L) | Surface tension at surface age 400 ms ([3]; 1.0 g/L) | Surface tension at surface age 20 ms ([3]; 3.0 g/L) | Surface tension at surface age 50 ms ([3]; 3.0 g/L) | Surface tension at surface age 100 ms ([3]; 3.0 g/L) | Surface tension at surface age 200 ms ([3]; 3.0 g/L) | Surface tension at surface age 400 ms ([3]; 3.0 g/L) | Compound | other results
54 s | 66.7 mN/m | 65.6 mN/m | 64.3 mN/m | 65.7 mN/m | 65.0 mN/m | 60.0 mN/m | 62.0 mN/m | 57.3 mN/m | 56.0 mN/m | 54.9 mN/m | 55.2 mN/m | 52.7 mN/m | 51.8 mN/m | 50.6 mN/m | 51.6 mN/m | CC[N+]([O-])(CC)CC=C(C)CCC=C(C)CCC=C(C)C [Diethyl, Diethyl Farnesyl Amine Oxide, reference compound] | solubility in water [2]: very poor
28 s | 59.9 mN/m | 56.9 mN/m | 52.9 mN/m | 51.5 mN/m | 49.5 mN/m | 43.8 mN/m | 40.7 mN/m | 39.3 mN/m | 38.1 mN/m | 36.9 mN/m | 35.3 mN/m | 33.2 mN/m | 32.5 mN/m | 32.1 mN/m | 31.5 mN/m | CC(C)=CCC/C(C)=C/CC/C(C)=C/C[N+](C)(C)[O-] [Dimethyl, Dimethyl Farnesyl Amine Oxide] | Foam ability [4]: no foam at all; C20: concentration of surfactant to reduce the surface tension of water by 20 mN/m [5]: 0.018 g/L; CMC [5]: 1.09 g/L; Surface tension [5]: 28.7 mN/m
